Settings: Liquid, Closed cell (Static) method

C=C(F)C(F)(F)F [2,3,3,3-tetrafluoro-1-propene]
Settings	vapor or sublimation pressure [kPa]
254.1 K	156.8
273.43 K	318.2
293.24 K	592.7
303.17 K	783.9
318.08 K	1153.4
332.97 K	1641.5
348.4 K	2288.8
